Measurements: ChEMBL document CHEMBL2046379, “CCLab--a multi-objective genetic algorithm based combinatorial library design software and an application for histone deacetylase inhibitor design” (Bioorg Med Chem Lett, 2012)
pIC50: −log10 of the molar value.

What was measured:
Histone deacetylase 1 = Histone deacetylase 1 (Homo sapiens, UniProt Q13547); assay: Inhibition of human recombinant His6-tagged and GST-fuses HDAC1 expressed in insect High5 cells using Ac-Lys-Tyr-Lys(e-acetyl)-AMC as substrate after 24 hrs by fluorescence assay
Chain of Histone deacetylase 1 (Q13547 whole entry): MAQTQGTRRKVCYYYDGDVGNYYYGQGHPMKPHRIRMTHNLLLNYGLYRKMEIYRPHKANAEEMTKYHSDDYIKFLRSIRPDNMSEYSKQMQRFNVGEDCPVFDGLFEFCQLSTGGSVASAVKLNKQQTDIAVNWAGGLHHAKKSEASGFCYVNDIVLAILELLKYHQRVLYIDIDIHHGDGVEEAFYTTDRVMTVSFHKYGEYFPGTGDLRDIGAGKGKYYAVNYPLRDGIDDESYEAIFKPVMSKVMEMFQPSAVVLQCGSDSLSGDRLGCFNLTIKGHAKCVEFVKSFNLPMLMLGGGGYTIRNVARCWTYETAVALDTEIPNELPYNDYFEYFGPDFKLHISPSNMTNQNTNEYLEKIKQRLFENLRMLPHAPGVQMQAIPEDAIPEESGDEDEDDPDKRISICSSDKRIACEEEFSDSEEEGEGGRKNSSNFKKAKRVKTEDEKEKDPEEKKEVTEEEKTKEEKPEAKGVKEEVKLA

Histone deacetylase 3 = Histone deacetylase 3 (Homo sapiens, UniProt O15379); assay: Inhibition of human recombinant His6-tagged and GST-fuses HDAC3 expressed in insect High5 cells using Ac-Lys-Tyr-Lys(e-acetyl)-AMC as substrate after 24 hrs by fluorescence assay
Chain of Histone deacetylase 3 (O15379 whole entry): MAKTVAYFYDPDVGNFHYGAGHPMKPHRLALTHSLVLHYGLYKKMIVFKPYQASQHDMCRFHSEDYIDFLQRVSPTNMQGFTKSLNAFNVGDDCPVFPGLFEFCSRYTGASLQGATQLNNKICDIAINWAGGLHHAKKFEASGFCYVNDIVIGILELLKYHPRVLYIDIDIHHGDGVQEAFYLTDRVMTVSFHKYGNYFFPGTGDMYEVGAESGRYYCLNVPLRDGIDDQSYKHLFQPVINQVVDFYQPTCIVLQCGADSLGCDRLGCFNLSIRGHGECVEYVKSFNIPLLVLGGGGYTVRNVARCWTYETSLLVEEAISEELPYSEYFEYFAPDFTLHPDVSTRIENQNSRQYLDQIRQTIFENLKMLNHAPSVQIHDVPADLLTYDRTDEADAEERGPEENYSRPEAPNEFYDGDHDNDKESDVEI

[1] = target: T1, Protein deacetylase HDAC6 (Homo sapiens, UniProt Q9UBN7); assay: Inhibition of human recombinant His6-tagged and GST-fuses HDAC6 expressed in insect High5 cells using Boc-Lys(eacetyl)- AMC as substrate after 3 hrs by fluorescence assay
T1 sequence (Q9UBN7 whole entry): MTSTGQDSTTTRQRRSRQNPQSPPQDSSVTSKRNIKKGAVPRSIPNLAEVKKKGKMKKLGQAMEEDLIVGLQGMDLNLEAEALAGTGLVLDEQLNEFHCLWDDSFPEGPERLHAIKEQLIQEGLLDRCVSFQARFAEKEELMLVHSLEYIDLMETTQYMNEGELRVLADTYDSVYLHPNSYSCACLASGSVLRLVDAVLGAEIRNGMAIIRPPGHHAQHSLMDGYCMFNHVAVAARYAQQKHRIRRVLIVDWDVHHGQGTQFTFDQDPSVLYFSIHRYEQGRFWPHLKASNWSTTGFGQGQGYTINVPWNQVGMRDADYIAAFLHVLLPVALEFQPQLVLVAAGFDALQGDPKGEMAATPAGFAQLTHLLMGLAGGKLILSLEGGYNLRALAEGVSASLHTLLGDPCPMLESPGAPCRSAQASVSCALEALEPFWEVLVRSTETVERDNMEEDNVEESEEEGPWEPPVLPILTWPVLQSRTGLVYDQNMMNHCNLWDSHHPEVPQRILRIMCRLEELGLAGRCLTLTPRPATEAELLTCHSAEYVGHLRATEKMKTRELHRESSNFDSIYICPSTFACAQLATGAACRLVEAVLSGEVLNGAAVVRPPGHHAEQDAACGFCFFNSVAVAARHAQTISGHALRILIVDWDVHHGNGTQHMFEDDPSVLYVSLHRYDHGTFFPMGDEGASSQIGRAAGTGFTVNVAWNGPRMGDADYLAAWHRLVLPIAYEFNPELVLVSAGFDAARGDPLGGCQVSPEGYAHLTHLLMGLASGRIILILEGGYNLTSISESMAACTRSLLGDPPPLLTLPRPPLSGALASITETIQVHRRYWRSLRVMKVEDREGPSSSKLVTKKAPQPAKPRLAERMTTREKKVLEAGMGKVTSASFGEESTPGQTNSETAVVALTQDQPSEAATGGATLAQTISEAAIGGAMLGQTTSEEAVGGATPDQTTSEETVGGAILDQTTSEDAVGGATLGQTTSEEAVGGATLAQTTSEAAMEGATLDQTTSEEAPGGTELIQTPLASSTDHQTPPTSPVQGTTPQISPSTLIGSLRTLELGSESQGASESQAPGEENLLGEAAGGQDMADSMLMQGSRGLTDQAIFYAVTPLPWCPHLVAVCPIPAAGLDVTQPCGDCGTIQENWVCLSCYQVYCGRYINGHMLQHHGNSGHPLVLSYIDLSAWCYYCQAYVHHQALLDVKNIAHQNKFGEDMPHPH

Row | SMILES | pIC50 (Histone deacetylase 1) | pIC50 (Histone deacetylase 3) | pIC50 [1]
1 | O=C(NCCCN1CCc2nc(C(=O)NO)sc2C1)c1ccc(-c2ccccc2)s1 | 5.25 | 5.29 | 5.47
2 | COc1ccc(/C=C/C(=O)Nc2ccc(C(=O)N3CCc4nc(C(=O)NO)sc4C3)cc2)cc1 | 4.65 | 4.79 | 6.35
3 | CC(c1ccc(NC(=O)/C=C/c2ccccc2)nc1)N1CCc2nc(C(=O)NO)sc2C1 (centres undefined) | 5.17 | 5.32 | 5.97
4 | COc1ccc(/C=C/C(=O)NCCCCN2CCc3nc(C(=O)NO)sc3C2)cc1 | 4.46 | 4.47 | 5.02
5 | CC(c1ccc(NC(=O)c2ccc(-c3ccccc3)s2)nc1)N1CCc2nc(C(=O)NO)sc2C1 (centres undefined) | 5.53 | 5.71 | 5.88
6 | C=CCCC(=O)NCCCN1CCc2nc(C(=O)NO)sc2C1 |  |  | 4.23
7 | O=C(/C=C/c1ccccc1)NCCCN1CCc2nc(C(=O)NO)sc2C1 | 4.40 | 4.87 | 4.87
8 | CC(C)N(C(=O)/C=C/c1ccccc1)c1cccc(CN2CCc3nc(C(=O)NO)sc3C2)c1 | 4.94 | 5.66 | 5.91
9 | C=CCCC(=O)NCCCCN1CCc2nc(C(=O)NO)sc2C1 |  |  | 4.61
10 | COc1ccc(/C=C/C(=O)Nc2ccc(C(C)N3CCc4nc(C(=O)NO)sc4C3)cn2)cc1 (centres undefined) | 5.17 | 5.24 | 5.81
11 | O=C(NCCCCN1CCc2nc(C(=O)NO)sc2C1)c1ccc(-c2ccccc2)s1 | 5.22 | 5.31 | 5.57
12 | O=C(/C=C/c1ccccc1)NCCCCN1CCc2nc(C(=O)NO)sc2C1 | 4.40 | 4.58 | 4.63
13 | C=CCCC(=O)Nc1ccc(C(=O)N2CCc3nc(C(=O)NO)sc3C2)cc1 | 5.01 | 5.03 | 6.41
14 | COc1ccc(/C=C/C(=O)NCCCN2CCc3nc(C(=O)NO)sc3C2)cc1 | 4.99 | 5.18 | 5.06
15 | C=CCCC(=O)Nc1ccc(C(C)N2CCc3nc(C(=O)NO)sc3C2)cn1 (centres undefined) | 4.18 | 4.72 | 4.87
16 | O=C(Nc1ccc(C(=O)N2CCc3nc(C(=O)NO)sc3C2)cc1)c1ccc(-c2ccccc2)s1 | 5.59 | 5.58 | 6.92
